Among the data in patent US6787651B2, “Substituted indoles, pharmaceutical compounds containing such indoles and their use as PPAR-γ binding agents” (SmithKline Beecham Corporation, priority 2000, dated 2004) are IC50 values, retold here.

The test addresses T1, PPARγ ligand binding domain (LBD) (amino acids 195-475) (Homo sapiens, UniProt P37231).
T1 construct: polyHis; made in house; host or cells: Escherichia coli
T1 sequence (P37231 195-475 isoform P37231-2): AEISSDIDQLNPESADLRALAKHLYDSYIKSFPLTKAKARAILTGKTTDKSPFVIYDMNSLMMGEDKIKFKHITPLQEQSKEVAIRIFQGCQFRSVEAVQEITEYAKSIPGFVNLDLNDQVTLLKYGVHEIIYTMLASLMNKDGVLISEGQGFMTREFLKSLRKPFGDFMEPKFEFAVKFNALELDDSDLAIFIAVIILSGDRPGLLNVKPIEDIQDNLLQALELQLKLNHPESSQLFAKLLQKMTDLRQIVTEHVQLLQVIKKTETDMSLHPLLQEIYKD
Briefly: PPAR-γ binding assay (spin plate / gel filtration binding assay, displacement of [3H]BRL 49653). Particulars: read-out: IC50 range in the PPAR-γ Binding Assay. The protocol:
The activity of a given compound in binding to PPAR-γ can be assayed routinely according to procedures known in the art. […] The PPAR-γ binding assay described below was used to determine the PPAR-γ binding activities of the compounds of the invention.
Compounds were tested for their ability to bind to PPARγ using a spin plate assay (gel filtration binding assay). […] Each compound was tested in triplicate. […] The plates were centrifuged (Beckman GS-6R) at 2500 rpm for 5 minutes, 170 μl Scitisafe® scintillation fluid (Fisher) was added to each well, the plates were sealed, and after 1 hour, were counted in a Wallac MicroBeta counter. The amount of nonspecific binding, as assessed by control wells containing 10 μM of the corresponding unlabeled ligand, was subtracted from each data point. For each compound tested, the data was averaged and plots of ligand concentration versus CPM of radioligand bound were constructed. Apparent IC50 values were estimated from nonlinear least-squares fit of the data assuming simple competitive binding.
(SEC sorts molecules by how far they enter the pores of the column.)

As to `COc1cccc(Cn2c(C(=O)O)c(-c3ccc(OCC4CC4)cc3)c3cc(OCc4cccc(C(F)(F)F)c4)ccc32)c1` [Example 321], the IC50 fell in the range of 0.1 to 9.99 nM.
In the case of `COc1cccc(Cn2c(C(=O)O)c(-c3ccc(OCC4CC4)cc3)c3ccccc32)c1` [Example 305, 3-[4-(Cyclopropylmethoxy)phenyl]-1-(3-methoxybenzyl)-1H-indole-2-carboxylic acid], the IC50 was in the range of 0.1 to 9.99 nM.
`O=C(O)c1c(-c2nc3ccccc3o2)c2ccccc2n1Cc1cccc(C(F)(F)F)c1` [Example 247]: the 50% inhibitory concentration (IC50) was in the range of 10 to 10000 nM.
Under `COc1cccc(Cn2c(C(=O)O)c(-c3ccc(OCC4CC4)cc3)c3cc(OCc4ccc(C(=O)O)cc4)ccc32)c1` [Example 322] stands 10 to 10000 nM.
As for `COc1cccc(Cn2c(C(=O)O)c(-c3ccc(OCC4CC4)cc3)c3cc(OCC4CC4)ccc32)c1` [Example 334], the IC50 was 0.1 to 9.99 nM.
Under `Cc1sc(-c2ccccc2)nc1CCOc1ccc2c(c1)cc(C(=O)O)n2CC1CCCO1` (centres unmarked) [Example 276] stands 10 to 10000 nM; under `COc1ccc(-c2c(C(=O)O)n(/C=C/c3ccccc3)c3ccccc23)cc1` [Example 349, 1-((1E)-2-Phenylvinyl)-3-(4-methoxyphenyl)indole-2-carboxylate], 0.1 to 9.99 nM.
Under `O=C(O)c1c(C2=NC3(CCCC3)CO2)c2ccccc2n1Cc1cccc(C(F)(F)F)c1` [Example 239] stands 10 to 10000 nM; under `COc1ccc(-c2c(C(=O)O)n(Cc3cccc(C(F)(F)F)c3)c3ccc(OCCCN(C)c4nc5ccccc5o4)cc23)cc1` [Example 234], 0.1 to 9.99 nM.
Consider `COc1cccc(Cn2c(C(=O)O)c(-c3ccc(OCC4CC4)cc3)c3cc(OCCCc4ccccc4)ccc32)c1` [Example 320], for which the IC50 is 0.1 to 9.99 nM.
As to `COc1cccc(Cn2c(C(=O)O)c(-c3cccc(OCC4CC4)c3)c3cc(OCCOCc4ccccc4)ccc32)c1` [Example 272], the IC50 lay in the range of 0.1 to 9.99 nM.
Under `COc1cccc(Cn2c(C(=O)O)c(-c3ccc(C(C)(C)C)cc3)c3cc(C(=O)C4CC4)ccc32)c1` [Example 254] stands 10 to 10000 nM; under `O=C(O)c1c(-c2cc3ccccc3s2)c2ccccc2n1Cc1cccc(C(F)(F)F)c1` [Example 232, 3-(Benzothien-2-yl)-1-[3-(trifluoromethyl)benzyl)-indole-2-carboxylic acid], 0.1 to 9.99 nM; under `CCCCOc1ccc2c(c1)c(-c1ccc(OCC3CC3)cc1)c(C(=O)O)n2Cc1cccc(OC)c1` [Example 332], 0.1 to 9.99 nM.
The same measure for `COc1ccc(-c2c(C(=O)O)n(Cc3cccc(OC)c3)c3ccc(OCCN(C)c4nc5ccccc5o4)cc23)cc1` [Example 233]: 10 to 10000 nM; for `O=C(O)c1[nH]c2c(C(=O)c3ccccc3)cccc2c1-c1ccccc1` [Example 251]: 10 to 10000 nM; for `COc1cccc(Cn2c(C(=O)O)c(-c3ccc(C(C)(C)C)cc3)c3cc(CC4CC4)ccc32)c1` [Example 253]: 0.1 to 9.99 nM.
As to `COCCOc1ccc2c(c1)c(-c1ccc(OCC3CC3)cc1)c(C(=O)O)n2Cc1cccc(OC)c1` [Example 312], the IC50 was 0.1 to 9.99 nM.
As to `COc1ccc(-c2c(C(=O)C(F)(F)F)n(Cc3cccc(C(F)(F)F)c3)c3ccccc23)cc1` [Example 360, 2,2,2-Trifluoro-1-{3-(4-methoxyphenyl)-1-[3-(trifluoromethyl)benzyl]-1H-indol-2-yl}ethanone], the IC50 fell in the range of 10 to 10000 nM.
Turning to `O=C(O)c1c(-c2ccc(S(=O)(=O)C3CC3)cc2)c2ccccc2n1Cc1cccc(C(F)(F)F)c1` [Example 353, 3-[4-(Cyclopropylsulfonyl)phenyl]-1-{[3-(trifluoromethyl)phenyl]methyl}indole-2-carb-oxylic acid], the IC50 was 0.1 to 9.99 nM.
With `CN1CCN(C(=O)c2c(C(=O)O)n(Cc3cccc(C(F)(F)F)c3)c3ccccc23)CC1` [Example 246], the IC50 was 10 to 10000 nM.
The same measure for `COc1ccc(-c2c(C(=O)O)n(C(=O)c3cccc(C(F)(F)F)c3)c3ccccc23)cc1` [Example 338, 3-(4-Methoxyphenyl)-1-{[3-(trifluoromethyl)phenyl]carbonyl}indole-2-carboxylic Acid]: 10 to 10000 nM; for `COc1cccc(Cn2c(C(=O)O)c(-c3ccc(C(C)(C)C)cc3)c3cccc(C(=O)C4CC4)c32)c1` [Example 252]: 10 to 10000 nM.
Under `CC1(C)COC(c2c(C(=O)O)n(Cc3cccc(C(F)(F)F)c3)c3ccccc23)=N1` [Example 238] stands 10 to 10000 nM; under `COc1cccc(Cn2c(C(=O)O)c(-c3ccc(C4(C)CC4)cc3)c3ccccc32)c1` [Example 258], 0.1 to 9.99 nM; under `CN1CCCC1CCOc1ccc2cc(C(=O)O)n(Cc3cccc(C(F)(F)F)c3)c2c1` (centres unmarked) [Example 280], 10 to 10000 nM.
With `O=C(O)c1c(-c2nc3cc(Cl)ccc3o2)c2ccccc2n1Cc1cccc(C(F)(F)F)c1` [Example 248], the IC50 was in the range of 10 to 10000 nM.
Under `O=C(O)c1c(-c2ccc(OCC3CC3)cc2)c2ccccc2n1Cc1cccc(C(F)(F)F)c1` [Example 308] stands 0.1 to 9.99 nM; under `COc1cccc(Cn2c(C(=O)O)c(-c3ccc(OCC4CC4)cc3)c3cc(OCC4CCC4)ccc32)c1` [Example 314], 0.1 to 9.99 nM.
Take `COc1cccc(Cn2c(C(=O)O)c(-c3ccc(C(C)(C)C)cc3)c3cc(CCOCC4CC4)ccc32)c1` [Example 275]: the IC50 is 0.1 to 9.99 nM.
Consider `C=CCOc1ccc2c(c1)c(-c1ccc(OCC3CC3)cc1)c(C(=O)O)n2Cc1cccc(OC)c1` [Example 333], for which the IC50 is 10 to 10000 nM.
Under `CCCOc1ccc2c(c1)c(-c1ccc(OCC3CC3)cc1)c(C(=O)O)n2Cc1cccc(OC)c1` [Example 331] stands 0.1 to 9.99 nM; under `CCOCCOc1ccc2c(c1)c(-c1cccc(OCC3CC3)c1)c(C(=O)O)n2Cc1cccc(OC)c1` [Example 271], 0.1 to 9.99 nM.
Under `CC(=O)c1cnc(-c2c(C(=O)O)n(Cc3cccc(C(F)(F)F)c3)c3ccccc23)s1` [Example 342] stands 0.1 to 9.99 nM; under `COc1ccc(-c2c(C(=O)O)n(S(=O)(=O)c3cccc(C(F)(F)F)c3)c3ccccc23)cc1` [Example 337, 3-(4-Methoxyphenyl)-1-{[3-(trifluoromethyl)phenyl]sulfonyl}indole-2-carboxylic acid], 10 to 10000 nM; under `O=C(O)c1c(-c2nc3cc(C(F)(F)F)ccc3s2)c2ccccc2n1Cc1cccc(C(F)(F)F)c1` [Example 257], 0.1 to 9.99 nM.
As for `COc1cccc(Cn2c(C(=O)O)c(-c3ncc(C4CC4)s3)c3ccccc32)c1` [Example 344], the IC50 was 0.1 to 9.99 nM.
Turning to `O=C(O)c1c(-c2ccc(SC3CC3)cc2)c2ccccc2n1Cc1cccc(C(F)(F)F)c1` [Example 262], the IC50 was 0.1 to 9.99 nM.
Consider `COc1ccc(-c2c(C(=O)NS(=O)(=O)c3ccc(OC)cc3)n(Cc3cccc(C(F)(F)F)c3)c3ccccc23)cc1` [Example 357], for which the concentration for half-maximal inhibition (IC50) is 0.1 to 9.99 nM.
For `COc1cccc(Cn2c(C(=O)O)c(-c3ccc(OCC4CC4)cc3)c3cc(OCc4ccc(C(C)(C)C)cc4)ccc32)c1` [Example 318], the IC50 is 10 to 10000 nM.
Under `COc1cccc(Cn2c(C(=O)O)c(-c3ccc(C(C)(C)C)cc3)c3cc(C(O)C4CC4)ccc32)c1` (centres unmarked) [Example 255] stands 10 to 10000 nM.
For `O=C(O)c1c(-c2nc3ccccc3s2)c2ccccc2n1Cc1cccc(OCC2CC2)c1` [Example 250], the IC50 fell in the range of 0.1 to 9.99 nM.
For the molecule `O=C(O)c1c(-c2cccc(OCC3CC3)c2)c2ccccc2n1Cc1cccc(OC(F)(F)F)c1` [Example 340], the IC50 fell in the range of 0.1 to 9.99 nM.
Under `COc1cccc(Cn2c(C(=O)O)c(-c3ccc(C(C)(C)C)cc3)c3cccc(CC4CC4)c32)c1` [Example 256] stands 10 to 10000 nM; under `COc1cccc(Cn2c(C(=O)O)c(-c3ccc(C(=O)N(C)C4CCCC4)cc3)c3ccccc32)c1` [Example 304], 0.1 to 9.99 nM; under `O=C(O)c1c(C(=O)N2CCOCC2)c2ccccc2n1Cc1cccc(C(F)(F)F)c1` [Example 245], 10 to 10000 nM.
Under `COc1cccc(Cn2c(C(=O)O)c(-c3ccc(OCC4CCCCO4)cc3)c3ccccc32)c1` (centres unmarked) [Example 306] stands 10 to 10000 nM; under `COc1cccc(Cn2c(C(=O)O)c(-c3ccc(OCc4ccc5ccccc5n4)cc3)c3ccccc32)c1` [Example 307], 0.1 to 9.99 nM; under `CCOc1ccc(-c2c(C(=O)O)n(Cc3ccc(F)cc3)c3ccc(CCOCC4CC4)cc23)cc1` [Example 348, 5-[2-(Cyclopropylmethoxy)ethyl]-3-(4-ethoxyphenyl)-1-(4-fluorobenzyl)-1H-indole-2-carboxylic acid], 0.1 to 9.99 nM.
On to `COc1cccc(-c2c(C(=O)O)n(Cc3cccc(OCC4CC4)c3)c3ccccc23)c1` [Example 283], for which the concentration for half-maximal inhibition (IC50) fell in the range of 0.1 to 9.99 nM.
As for `COc1cccc(Cn2c(C(=O)O)c(-c3cccc(NC(=O)C4CC4)c3)c3ccccc32)c1` [Example 326], the concentration for half-maximal inhibition (IC50) was in the range of 10 to 10000 nM.
Take `CCOc1ccc2c(c1)c(-c1ccc(OCC3CC3)cc1)c(C(=O)O)n2Cc1cccc(OC)c1` [Example 330, 3-[4-(Cyclopropylmethoxy)phenyl]-5-ethoxy-1-(3-methoxybenzyl)-1H-indole-2-carboxylic acid]: the IC50 was 0.1 to 9.99 nM.
Under `CC(C)(C)c1ccc2oc(-c3c(C(=O)O)n(Cc4cccc(C(F)(F)F)c4)c4ccccc34)nc2c1` [Example 249] stands 0.1 to 9.99 nM.

One may read the IC50 as the concentration needed to halve the response being measured.
